# Results reported in patent US5340806A, “Composition containing organogermanium compound and immunity adjusting agent comprising the composition” (Sanwa Kagaku Kenkyusho Co., Ltd., priority 1984, dated 1994).
# Like-named read-outs stand apart in the source and are kept apart here.
# What was measured:
# LD50 for beagle dog = conditions: in vivo
# chronic B hepatitis [1] = experiment: Chronic B hepatitis, 16 weeks, 30 mg/day/body (In Vivo Utilization Example 5); parameters: species or system human patients
# [2] = test system: adjuvant arthritis in rats; experiment: Adjuvant arthritis in rats; assay type: in vivo, S.D. male rats; conditions: 100 mg/kg/day oral, FIG. 12
# Description: 0.05 ml of an adjuvant (prepared by suspending 0.6 mg of micobacteriumbutircum into 0.05 ml of liquid paraffin) was injected under the skin of a hind leg heel in S.D. male rats. After 1, 3, 5, 7, 21, and 28 days from the adjuvant dosage, the volume of the dosed and non-dosed legs was measured to determine a ratio of the edema.
# The organogermanium compound was orally dosed for 28 days after the adjuvant dosage, in an amount of 1, 10 and 100 mg/kg/day, respectively.
# [3] = test system: NZB/W F1 mouse lymphocytes; experiment: Antibody production in culture system of NZB/W F1 mouse lymphocytes; assay type: cell-based, NZB/W F1 male mice; conditions: 1 to 2 μg/ml; FIG. 10a
# chronic B hepatitis [4] = assay type: in vivo, human patients
# Description: Search on utility or effectiveness of the organogermanium compound on patients who are infected with chronic B hepatitis, or with non A non B hepatitis, and show "positive" to HBe antigen as well as a preferable amount of dose thereof.
# The amount of dose has been set as follows, by taking the results given in In Vivo Utilization Example 1 into consideration.
# (a) 30 mg/day/body showing most preferable data in effectiveness, and
# (b) 15 mg/day/body (half amount).
# Experimental period of time was set for 12 weeks.
# (a) Examination of liver functions (GOT, GPT, total bilirubin, LDH, y-GTP, and y-globulin), and
# (b) Examination with use of HBV marker (HBe-Ag).
# [5] = test system: spleen cells (PFC), SRBC sensitized mice; experiment: Antibody production ability in normal mouse (spleen cell PFC); assay type: in vivo, ICR mice; conditions: 0.1, 1.0 and 10 mg/kg oral
# Description: To each group of ICR mice (age, 5 weeks), 2×10^8 and 2 ×10^7 of sheep red blood corpuscles (SRBC), as an […], were venously injected for sensitization in a tail vein of the mice. Then, immediately, the organogermanium compound dissolved in 4% cattle serum albumin solution was orally dosed to the sensitized mice in an amount of 0.1, 1.0 and 10 mg/kg, respectively. After 4 days from the sensitization, spleen cells were extracted to measure the number of PFC therein, which was used as an index of the antibody productivity.
# [6] = parameters: species or system human; conditions: in vivo
# Description: A capsule containing various amount of effective organogermanium compound were dosed to each of healthy adult persons to check kinetics of the drug. […] The excretion ratio of the drug in urine was 30-50% in cases of any dose.
# Therefore, it has been judged that the influence of the hepatitis on pharmakinetics of the drug is small.
substance,measurement,setting,value
3-oxygermylpropionic acid [Compound No. 1],15 mg/body as fraction of LD50 for beagle dog,LD50 for beagle dog,1/12000
same,suppressor T lymph cell and other CD8 positive cells,chronic B hepatitis [1]; Two-color analysis,A significant reduction
same,HBe antigen,chronic B hepatitis [1]; after 8 and 12 weeks,A significant reduction of HBe antigen
same,HBe antibody,chronic B hepatitis [1]; after 8 weeks,Significant increase of HBe antibody
same,patients changed to SC,chronic B hepatitis [1]; among 33 HBe antigen positive,2 Patients
same,patients changed from positive to negative DNA-polymerase,"chronic B hepatitis [1]; end of experiment, 4 patients",14%
same,"improvement in liver functions, HBe antigen positive versus negative groups",chronic B hepatitis [1]; in vivo,no significant difference
same,ratio of improvement in functions of liver,chronic B hepatitis [1]; middle or more,30%
same,ratio of improvement in functions of liver,chronic B hepatitis [1]; slight or more,50%
same,effect on secondary phlegmasia after 14 to 28 days,[2],an inhibition effect to a secondary phlegmasia
same,antibody production ability,[3],an inhibition in antibody production ability
same,Effectiveness (slight or more),chronic B hepatitis [4]; 15 mg/day,38%
same,General judgement: Improvement (slight or more),chronic B hepatitis [4]; 15 mg/day,36%
same,Effectiveness (slight or more),chronic B hepatitis [4]; 30 mg/day,60%
same,General judgement: Improvement (slight or more),chronic B hepatitis [4]; 30 mg/day,62%
same,GOT change,"chronic B hepatitis [4]; 30 mg/day, 12 weeks",.dwnarw. ***
same,GPT change,"chronic B hepatitis [4]; 30 mg/day, 12 weeks",.dwnarw. ***
same,HBe-Ag (log conversion) change,"chronic B hepatitis [4]; 30 mg/day, 12 weeks",.dwnarw. +
same,LDH change,"chronic B hepatitis [4]; 30 mg/day, 12 weeks",.dwnarw. *
same,spleen cell PFC,"[5]; SRBC 2×10^7, FIG. 8b",increase it
same,spleen cell PFC,"[5]; SRBC 2×10^8, FIG. 8a",tendancy to decrease spleen cell PFC
same,excretion ratio of the drug in urine,"[6]; human, po",30-50%
same,time to maximum plasma concentration,"[6]; human, po",3 h
same,AUC versus dose,[6],AUC increases as the amount of dose increases
same,"AUC, Cmax and excretion ratio in urine, hepatitis patients versus healthy persons",[6],tended to increase
same,plasma concentration on first day versus 7th day,[6],same level
same,tendency to accumulate,[6],does not show a tendency to accumulate
